Assay results reported in patent publication US8637525B2, “Compounds for the reduction of beta-amyloid production” (Bristol-Myers Squibb Company, priority 2009, dated 2014).
Structures can show the parent of a compound that is named as a salt. Where two headings read alike, the source gives them in different places.

Tested on: Aβ1-42 production
Assay: Cellular assay for inhibition of Aβ1-42 production (H4 APP751 SWE clone 8.20)
Assay type: cell-based
Details: H4 APP751 SWE clone 8.20 cells, 19 h incubation
Method in brief: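 Secreted peptide was quantified with a two-antibody homogeneous format combining Wallac-labelled 565, which recognises the Aβ42 end, and APC-labelled 26D6 at 0.8 and 75 ng/well respectively. Antibodies were diluted in 40 mM Tris-HCl, pH 7.4, 0.2% BSA and left overnight at 4 °C after a 19 h compound incubation.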

[1] = 19 h, class symbols, read-out: Activity Rating (Aβ42 cellular IC50)
[2] = class symbols, read-out: Activity Rating (Aβ42 cellular IC50)
[3] = 19 h, read-out: Activity Rating (Aβ42 cellular IC50), numeric value

Row | Compound | IC50 [1] [nM] | IC50 [2] [nM] | also measured
1 | CNc1nc(Nc2ccc(-n3cnc(C)n3)c(OC)c2)nc2c1CCC2c1ccc(F)cc1F (stereo not shown) [Example 193, 7-(2,4-difluorophenyl)-N2-(3-methoxy-4-(3-methyl-1H-1,2,4-triazol-1-yl)phenyl)-N4-methyl-6,7-dihydro-5H-cyclopenta[d]pyrimidine-2,4-diamine] | 10 to 100 |  | 
2 | CNc1nc(Nc2ccc(-n3cnc(C)n3)c(OC)c2)nc2c1COCC2c1ccc(F)cc1 (racemic) [Example 54, 8-(4-fluorophenyl)-N2-(3-methoxy-4-(3-methyl-1H-1,2,4-triazol-1-yl)phenyl)-N4-methyl-7,8-dihydro-5H-pyrano[4,3-d]pyrimidine-2,4-diamine] | 10 to 100 |  | 
3 | COc1cc(Nc2nc3c(c(N4CC[C@@H](F)C4)n2)COC3c2ccc(F)cc2)ccc1-n1cnc(Cl)c1 (single isomer, unassigned) [Example 83B] |  | 10 to 100 | 
4 | COc1cc(Nc2nc3c(c(N(C)C)n2)CCC3c2ccc(F)cc2)ccc1-n1cnc(Cl)c1 (single isomer, unassigned) [Example 46B, N^2-(4-(4-chloro-1H-imidazol-1-yl)-3-methoxyphenyl)-7-(4-fluorophenyl)-N^4,N^4-dimethyl-6,7-dihydro-5H-cyclopenta[d]pyrimidine-2,4-diamine] |  | 10 to 100 | 
5 | CCNc1nc(Nc2ccc(-n3cnc(Cl)c3)c(OC)c2)nc2c1CCOC2c1ccc(F)cc1 (racemic) [Example 88, N2-(4-(4-chloro-1H-imidazol-1-yl)-3-methoxyphenyl)-N4-ethyl-8-(4-fluorophenyl)-6,8-dihydro-5H-pyrano[3,4-d]pyrimidine-2,4-diamine] | 10 to 100 |  | 
6 | CNc1nc(Nc2ccc(-n3cnc(Cl)c3)c(OC)c2)nc2c1/C(=N/OC)CC2c1ccccc1 (stereo not shown) [Example 201, (E)-2-(4-(4-chloro-1H-imidazol-1-yl)-3-methoxyphenylamino)-4-(methylamino)-7-phenyl-6,7-dihydro-5H-cyclopenta[d]pyrimidin-5-one O-methyl oxime] |  |  | IC50 [3]: 5.3 nM
7 | COc1cc(Nc2nc3c(c(N4CCC(N(C)C)C4)n2)CCC3c2ccc(F)cc2)ccc1-n1cnc(Cl)c1 (stereo not shown) [Example 29, N-(4-(4-chloro-1H-imidazol-1-yl)-3-methoxyphenyl)-4-(3-(dimethylamino)pyrrolidin-1-yl)-7-(4-fluorophenyl)-6,7-dihydro-5H-cyclopenta[d]pyrimidin-2-amine] | 10 to 100 |  | 
8 | COc1cc(Nc2nc3c(c(N(C)C)n2)COCC3c2ccc(F)cc2)ccc1-n1cnc(Cl)c1 (stereo not shown) [Example 61B, N2-(4-(4-chloro-1H-imidazol-1-yl)-3-methoxyphenyl)-8-(4-fluorophenyl)-N4,N4-dimethyl-7,8-dihydro-5H-pyrano[4,3-d]pyrimidine-2,4-diamine] |  | 10 to 100 | 
9 | COc1cc(Nc2nc3c(c(N4CCC4)n2)CCC3c2ccccc2)ccc1-n1cnc(Cl)c1 (stereo not shown) [Example 6, 4-(Azetidin-1-yl)-N-(4-(4-chloro-1H-imidazol-1-yl)-3-methoxyphenyl)-7-phenyl-6,7-dihydro-5H-cyclopenta[d]pyrimidin-2-amine] | 10 to 100 |  | 
10 | CNc1nc(Nc2ccc(-n3cnc(Cl)c3)c(OC)c2)nc2c1COCC2c1ccc(F)c(F)c1 (stereo not shown) [Example 115A, N2-(4-(4-chloro-1H-imidazol-1-yl)-3-methoxyphenyl)-8-(3,4-difluorophenyl)-N4-methyl-7,8-dihydro-5H-pyrano[4,3-d]pyrimidine-2,4-diamine] |  | 1.5 to 9.9 | 
11 | CNc1nc(Nc2ccc(-n3cnc(Cl)c3)c(OC)c2)nc2c1CN(S(C)(=O)=O)CC2c1ccccc1 (stereo not shown) [Example 129A, N2-(4-(4-chloro-1H-imidazol-1-yl)-3-methoxyphenyl)-N4-methyl-6-(methylsulfonyl)-8-phenyl-5,6,7,8-tetrahydropyrido[4,3-d]pyrimidine-2,4-diamine] | 1.5 to 9.9 |  | 
12 | COc1cc(Nc2nc3c(c(N4C[C@@H](C)O[C@@H](C)C4)n2)COC3c2ccc(F)cc2)ccc1-n1cnc(Cl)c1 (mixture of isomers) [Example 84, N-(4-(4-chloro-1H-imidazol-1-yl)-3-methoxyphenyl)-4-((2S,6R)-2,6-dimethylmorpholino)-7-(4-fluorophenyl)-5,7-dihydrofuro[3,4-d]pyrimidin-2-amine, 2 TFA] | 10 to 100 |  | 
13 | CNc1nc(Nc2ccc(-n3cnc(C)n3)c(OC)c2)nc2c1COCC2c1ccc(Cl)cc1 (single isomer, unassigned) [Example 71A, 8-(4-chlorophenyl)-N^2-(3-methoxy-4-(3-methyl-1H-1,2,4-triazol-1-yl)phenyl)-N^4-methyl-7,8-dihydro-5H-pyrano[4,3-d]pyrimidine-2,4-diamine] |  | 1.5 to 9.9 | 
14 | CNc1nc(Nc2ccc(C#N)cc2)nc2c1CCC2c1ccccc1 (stereo not shown) [Example 227, 4-(4-(methylamino)-7-phenyl-6,7-dihydro-5H-cyclopenta[d]pyrimidin-2-ylamino)benzonitrile] |  |  | IC50 (read-out: Activity Rating (Aβ42 cellular IC50), numeric value): 12 nM
15 | CCNc1nc(Nc2ccc(-n3cnc(C)n3)c(F)c2)nc2c1CN(CC(F)F)CC2c1ccccc1 (stereo not shown) [Example 195B, 6-(2,2-difluoroethyl)-N4-ethyl-N2-(3-fluoro-4-(3-methyl-1H-1,2,4-triazol-1-yl)phenyl)-8-phenyl-5,6,7,8-tetrahydropyrido[4,3-d]pyrimidine-2,4-diamine] | 100 to 1000 |  | 
16 | CNc1nc(Nc2ccc(C#N)c(C(F)(F)F)c2)nc2c1CCC2c1ccccc1 (stereo not shown) [Example 238, 4-(4-(methylamino)-7-phenyl-6,7-dihydro-5H-cyclopenta[d]pyrimidin-2-ylamino)-2-(trifluoromethyl)benzonitrile] |  | 100 to 1000 | 
17 | COc1cc(Nc2nc3c(c(N4CC(F)(F)C4)n2)COCC3c2ccc(F)c(F)c2)ccc1-n1cnc(Cl)c1 (racemic) [Example 114, N-(4-(4-chloro-1H-imidazol-1-yl)-3-methoxyphenyl)-4-(3,3-difluoroazetidin-1-yl)-8-(3,4-difluorophenyl)-7,8-dihydro-5H-pyrano[4,3-d]pyrimidin-2-amine, TFA] | 1.5 to 9.9 |  | 
18 | CNc1nc(Nc2ccc(-n3cnc(C)n3)c(OC)c2)nc2c1CCC2c1ccc(F)cc1F (single isomer, unassigned) [Example 193A, 7-(2,4-difluorophenyl)-N2-(3-methoxy-4-(3-methyl-1H-1,2,4-triazol-1-yl)phenyl)-N4-methyl-6,7-dihydro-5H-cyclopenta[d]pyrimidine-2,4-diamine] |  | 100 to 1000 | 
19 | CNc1nc(Nc2ccc(-n3cnc(Cl)c3)c(OC)c2)nc2c1CCCC2c1ccccc1 (stereo not shown) [Example 203B, N2-(4-(4-chloro-1H-imidazol-1-yl)-3-methoxyphenyl)-N4-methyl-8-phenyl-5,6,7,8-tetrahydroquinazoline-2,4-diamine] |  | 10 to 100 | 
20 | COc1cc(Nc2nc3c(c(N4CC(C)(F)C4)n2)CCC3c2ccc(F)cc2)ccc1-n1cnc(Cl)c1 (stereo not shown) [Example 190, N-(4-(4-chloro-1H-imidazol-1-yl)-3-methoxyphenyl)-4-(3-fluoro-3-methylazetidin-1-yl)-7-(4-fluorophenyl)-6,7-dihydro-5H-cyclopenta[d]pyrimidin-2-amine] |  |  | IC50 [3]: 37 nM
21 | CNc1nc(Nc2ccc(C#N)c(C#N)c2)nc2c1CCC2c1ccccc1 (stereo not shown) [Example 237, 4-(4-(methylamino)-7-phenyl-6,7-dihydro-5H-cyclopenta[d]pyrimidin-2-ylamino)phthalonitrile] |  |  | IC50 [3]: 29 nM
22 | CNc1nc(Nc2ccc(-n3cnc(Cl)c3)c(OC)c2)nc2c1COCC2c1ccccc1 (single isomer, unassigned) [Example 51B, N^2-(4-(4-chloro-1H-imidazol-1-yl)-3-methoxyphenyl)-N^4-methyl-8-phenyl-7,8-dihydro-5H-pyrano[4,3-d]pyrimidine-2,4-diamine] |  | 1.5 to 9.9 | 
23 | CNc1nc(Nc2ccc(-n3cnc(Cl)c3)c(OC)c2)nc2c1CCC2c1ccc(Cl)cc1 (single isomer, unassigned) [Example 94A, N^2-(4-(4-chloro-1H-imidazol-1-yl)-3-methoxyphenyl)-7-(4-chlorophenyl)-N^4-methyl-6,7-dihydro-5H-cyclopenta[d]pyrimidine-2,4-diamine] |  | 1.5 to 9.9 | 
24 | COc1cc(Nc2nc3c(c(N4CC(F)(F)C4)n2)CCC3c2ccc(F)cc2)ccc1-n1cnc(Cl)n1 (single isomer, unassigned) [Example 17B, N-(4-(3-chloro-1H-1,2,4-triazol-1-yl)-3-methoxyphenyl)-4-(3,3-difluoroazetidin-1-yl)-7-(4-fluorophenyl)-6,7-dihydro-5H-cyclopenta[d]pyrimidin-2-amine] | 10 to 100 |  | 
25 | COc1cc(Nc2nc3c(c(N4CCC4)n2)CCC3c2ccccc2)ccc1-n1cnc(Cl)c1 (single isomer, unassigned) [Example 6B, 4-(azetidin-1-yl)-N-(4-(4-chloro-1H-imidazol-1-yl)-3-methoxyphenyl)-7-phenyl-6,7-dihydro-5H-cyclopenta[d]pyrimidin-2-amine] |  | 10 to 100 | 
26 | CCNc1nc(Nc2ccc(-n3ncnc3C)c(F)c2)nc2c1COCC2c1ccc(C(F)(F)F)cc1 (stereo not shown) [Example 119B, N4-ethyl-N2-(3-fluoro-4-(5-methyl-1H-1,2,4-triazol-1-yl)phenyl)-8-(4-(trifluoromethyl)phenyl)-7,8-dihydro-5H-pyrano[4,3-d]pyrimidine-2,4-diamine] | 100 to 1000 |  | 
27 | COc1cc(Nc2nc3c(c(N4CCNCC4)n2)CCC3c2ccc(F)cc2)ccc1-n1cnc(Cl)c1 (stereo not shown) [Example 31, N-(4-(4-chloro-1H-imidazol-1-yl)-3-methoxyphenyl)-7-(4-fluorophenyl)-4-(piperazin-1-yl)-6,7-dihydro-5H-cyclopenta[d]pyrimidin-2-amine] | 100 to 1000 |  | 
28 | CNc1nc(Nc2ccncc2)nc2c1CCC2c1ccccc1 (stereo not shown) [Example 224, N4-methyl-7-phenyl-N2-(pyridin-4-yl)-6,7-dihydro-5H-cyclopenta[d]pyrimidine-2,4-diamine] | > 1000 |  | 
